Reference: BindingDB's records for doi:10.1016/j.bmcl.2005.05.131 (Naeja Pharmaceutical, 2005)

Each compound was assayed against T1, Cyclin-dependent kinase 4/G1/S-specific cyclin-D1 [L188C] (Homo sapiens, UniProt P11802) (assay: not given).

In order of falling IC50:
1. COc1ccc2cnc(Nc3ccc(N4CCCC4)cc3)nc2c1C(C)C [7-methoxy-8-(propan-2-yl)-N-[4-(pyrrolidin-1-yl)phenyl]quinazolin-2-amine]  560 nM
2. COc1ccc2cnc(Nc3ccccc3)nc2c1C(C)C [7-methoxy-N-phenyl-8-(propan-2-yl)quinazolin-2-amine]  125 nM
3. COc1ccc2cnc(Nc3ccc(N4CCCCC4)cc3)nc2c1C(C)C [7-methoxy-N-[4-(piperidin-1-yl)phenyl]-8-(propan-2-yl)quinazolin-2-amine]  52 nM
4. COc1ccc2cnc(Nc3ccc(N4CCOCC4)cc3)nc2c1C(C)C [7-methoxy-N-[4-(morpholin-4-yl)phenyl]-8-(propan-2-yl)quinazolin-2-amine]  52 nM
5. COc1ccc2cnc(Nc3ccc(N4CCN(C(C)=O)CC4)cc3)nc2c1C(C)C [1-[4-(4-{[7-methoxy-8-(propan-2-yl)quinazolin-2-yl]amino}phenyl)piperazin-1-yl]ethan-1-one]  25 nM
6. COc1ccc2cnc(Nc3ccc(N4CCNCC4)cc3)nc2c1C(C)C [7-methoxy-N-[4-(piperazin-1-yl)phenyl]-8-(propan-2-yl)quinazolin-2-amine]  16 nM
7. COc1ccc2cnc(Nc3ccc(N4CCC(N)C4)cc3)nc2c1C(C)C (configuration not stated) [N-[4-(3-aminopyrrolidin-1-yl)phenyl]-7-methoxy-8-(propan-2-yl)quinazolin-2-amine]  11 nM

The compounds below were run against T1, Cyclin-dependent kinase 4/G1/S-specific cyclin-D1 [L188C] (assay: CDKs Assay).

In order of rising IC50:
1. COc1ccc2cnc(Nc3ccc(N4CCNCC4)cc3)nc2c1C1CCCC1 [8-cyclopentyl-7-methoxy-N-[4-(piperazin-1-yl)phenyl]quinazolin-2-amine]  1 nM
2. COc1ccc2cnc(Nc3ccc(N4CCN(C(C)=O)CC4)cc3)nc2c1C1CCCC1 [1-(4-{4-[(8-cyclopentyl-7-methoxyquinazolin-2-yl)amino]phenyl}piperazin-1-yl)ethan-1-one]  2 nM
3. COc1ccc2cnc(Nc3ccc(N4CCN(C(=O)CN)CC4)cc3)nc2c1C1CCCC1 [2-amino-1-(4-{4-[(8-cyclopentyl-7-methoxyquinazolin-2-yl)amino]phenyl}piperazin-1-yl)ethan-1-one]  2 nM
4. COc1ccc2cnc(Nc3ccc(N4CCNCC4)c(F)c3)nc2c1C1CCCC1 [8-cyclopentyl-N-[3-fluoro-4-(piperazin-1-yl)phenyl]-7-methoxyquinazolin-2-amine]  4 nM
5. COc1ccc2cnc(Nc3ccc(N4CCN(C(=O)CN)CC4)cc3)nc2c1C(C)C [2-amino-1-[4-(4-{[7-methoxy-8-(propan-2-yl)quinazolin-2-yl]amino}phenyl)piperazin-1-yl]ethan-1-one]  10 nM
6. COc1ccc2cnc(Nc3ccc(N4CCCCC4)cc3)nc2c1C1CCCC1 [8-cyclopentyl-7-methoxy-N-[4-(piperidin-1-yl)phenyl]quinazolin-2-amine]  11 nM
7. COc1ccc2cnc(Nc3ccc(N4CCOCC4)cc3)nc2c1C1CCCC1 [8-cyclopentyl-7-methoxy-N-[4-(morpholin-4-yl)phenyl]quinazolin-2-amine]  18 nM
8. COc1ccc2cnc(Nc3ccc(N4CCC(N)C4)cc3)nc2c1C1CCCC1 (configuration not stated) [N-[4-(3-aminopyrrolidin-1-yl)phenyl]-8-cyclopentyl-7-methoxyquinazolin-2-amine]  115 nM
9. CC(C)c1c(O)ccc2cnc(Nc3ccccc3)nc12 [2-(phenylamino)-8-(propan-2-yl)quinazolin-7-ol]  325 nM
10. COc1ccc2cnc(Nc3ccc(N4CCCC4)cc3)nc2c1C1CCCC1 [8-cyclopentyl-7-methoxy-N-[4-(pyrrolidin-1-yl)phenyl]quinazolin-2-amine]  1750 nM
